According to ChEMBL document CHEMBL1201862, “PubChem BioAssay data set” (2004):
The source made the active and inactive calls.

Tests used:
[1] = target: T1, DNA repair protein RAD52 homolog (Homo sapiens, UniProt P43351); format: functional, biochemical
T1 sequence (P43351 whole entry): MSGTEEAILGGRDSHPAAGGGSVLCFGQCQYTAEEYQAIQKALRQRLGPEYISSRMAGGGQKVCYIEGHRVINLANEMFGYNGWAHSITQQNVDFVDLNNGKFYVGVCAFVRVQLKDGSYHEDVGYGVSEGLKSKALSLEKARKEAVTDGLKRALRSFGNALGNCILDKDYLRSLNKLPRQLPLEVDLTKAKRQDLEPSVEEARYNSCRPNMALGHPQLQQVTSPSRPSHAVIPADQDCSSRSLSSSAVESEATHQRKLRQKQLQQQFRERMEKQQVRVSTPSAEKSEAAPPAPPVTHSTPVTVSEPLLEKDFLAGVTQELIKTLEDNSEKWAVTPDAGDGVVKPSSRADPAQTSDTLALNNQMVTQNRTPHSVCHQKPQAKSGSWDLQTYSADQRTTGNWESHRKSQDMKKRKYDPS

[2] = inhibitors of intracellular T. cruzi replication, confirmation, NIH3T3 host cells, beta-gal luminescence (AID 2044); format: functional, cell-based;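 also: intracellular parasites grown in NIH/3T3 mouse fibroblasts as host cells; luminescent beta-galactosidase reporter signal from transgenic T. cruzi replicating inside host cells; inhibitors lower the luminescence signal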
[3] = target: T2, Rac GTPase-activating protein 1 (Homo sapiens, UniProt Q9H0H5); test: MgcRacGAP GTPase-activating activity inhibitors, confirmation, biochemical, ADP Hunter fluorescence, primary and confirmatory (AID 624330); format: functional
T2 sequence (Q9H0H5 whole entry): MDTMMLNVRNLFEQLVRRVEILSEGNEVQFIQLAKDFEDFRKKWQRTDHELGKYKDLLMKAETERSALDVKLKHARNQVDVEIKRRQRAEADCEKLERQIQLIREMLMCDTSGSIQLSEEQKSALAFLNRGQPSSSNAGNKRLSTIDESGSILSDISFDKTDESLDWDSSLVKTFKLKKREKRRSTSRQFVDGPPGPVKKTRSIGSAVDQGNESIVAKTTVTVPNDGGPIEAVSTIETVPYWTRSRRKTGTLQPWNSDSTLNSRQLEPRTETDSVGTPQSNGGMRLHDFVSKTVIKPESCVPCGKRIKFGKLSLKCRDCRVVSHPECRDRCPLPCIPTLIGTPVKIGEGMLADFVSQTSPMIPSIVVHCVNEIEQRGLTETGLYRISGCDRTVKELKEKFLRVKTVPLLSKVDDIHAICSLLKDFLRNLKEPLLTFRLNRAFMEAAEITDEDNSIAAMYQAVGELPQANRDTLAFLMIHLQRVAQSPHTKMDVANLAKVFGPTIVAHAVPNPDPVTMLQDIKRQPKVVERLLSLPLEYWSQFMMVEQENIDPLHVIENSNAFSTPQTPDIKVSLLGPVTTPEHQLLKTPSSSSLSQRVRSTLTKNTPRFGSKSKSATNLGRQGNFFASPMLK

[4] = cytotoxicity toward NIH3T3 fibroblasts, dose response, counter-screen, cell-based, ATP luminescence, mouse fibroblasts (AID 2010); format: functional;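 also: cells exposed to compound for about 90 hours before reading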
[5] = target: T3, Histone-lysine N-methyltransferase NSD2 (Homo sapiens, UniProt O96028); format: biochemical
T3 sequence (O96028 whole entry): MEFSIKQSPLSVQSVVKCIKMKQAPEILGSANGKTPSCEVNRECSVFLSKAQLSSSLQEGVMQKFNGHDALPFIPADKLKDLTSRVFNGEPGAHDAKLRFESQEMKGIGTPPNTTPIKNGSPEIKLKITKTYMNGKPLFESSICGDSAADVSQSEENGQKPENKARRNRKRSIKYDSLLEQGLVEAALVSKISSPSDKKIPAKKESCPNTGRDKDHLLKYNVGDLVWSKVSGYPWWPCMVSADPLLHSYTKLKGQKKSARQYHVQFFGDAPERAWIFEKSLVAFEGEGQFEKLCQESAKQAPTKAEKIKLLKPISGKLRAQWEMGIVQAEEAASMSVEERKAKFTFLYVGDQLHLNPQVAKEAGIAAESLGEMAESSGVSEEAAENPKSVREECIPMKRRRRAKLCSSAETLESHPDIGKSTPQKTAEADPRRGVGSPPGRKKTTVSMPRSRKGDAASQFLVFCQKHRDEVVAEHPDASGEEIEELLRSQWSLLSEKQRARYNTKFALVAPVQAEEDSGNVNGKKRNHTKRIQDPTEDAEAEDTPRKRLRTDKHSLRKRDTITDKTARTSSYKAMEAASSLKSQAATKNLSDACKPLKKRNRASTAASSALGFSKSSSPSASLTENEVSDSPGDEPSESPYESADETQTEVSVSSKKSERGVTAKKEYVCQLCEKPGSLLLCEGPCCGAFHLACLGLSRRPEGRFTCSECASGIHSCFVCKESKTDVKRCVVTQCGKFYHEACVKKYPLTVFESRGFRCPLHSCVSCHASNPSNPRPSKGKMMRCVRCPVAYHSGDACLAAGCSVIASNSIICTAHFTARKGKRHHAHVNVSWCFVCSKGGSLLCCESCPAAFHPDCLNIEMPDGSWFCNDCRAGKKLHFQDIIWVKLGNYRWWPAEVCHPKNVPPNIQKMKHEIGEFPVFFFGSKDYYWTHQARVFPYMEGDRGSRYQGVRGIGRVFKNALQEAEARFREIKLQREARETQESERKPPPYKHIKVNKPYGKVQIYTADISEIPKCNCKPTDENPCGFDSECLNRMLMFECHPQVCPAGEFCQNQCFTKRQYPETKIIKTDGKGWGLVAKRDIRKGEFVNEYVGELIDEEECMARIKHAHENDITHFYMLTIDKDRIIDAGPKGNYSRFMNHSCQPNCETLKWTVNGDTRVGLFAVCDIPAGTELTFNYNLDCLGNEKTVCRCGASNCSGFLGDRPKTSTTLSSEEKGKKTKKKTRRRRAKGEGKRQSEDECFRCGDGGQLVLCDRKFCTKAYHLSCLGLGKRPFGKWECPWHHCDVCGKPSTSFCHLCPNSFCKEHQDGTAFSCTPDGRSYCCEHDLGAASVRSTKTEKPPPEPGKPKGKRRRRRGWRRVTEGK

[6] = target: T4, Fatty acid synthase (Homo sapiens, UniProt P49327); test: FAS thioesterase domain inhibitors, dose response, biochemical, kinetic fluorescence intensity (AID 624326); format: functional;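 also: rate of fluorescence rise from hydrolysis of a fluorogenic O-methyl fluorescein ester substrate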
[7] = target: T4, Fatty acid synthase; test: FAS thioesterase domain inhibitors, dose response, biochemical, endpoint fluorescence intensity, uHTS hits (AID 624327); format: functional;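 also: fluorescence from hydrolysis of an O-methyl fluorescein acyl ester substrate by the enzyme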
[8] = target: T5, Nuclear receptor subfamily 0 group B member 1 (Homo sapiens, UniProt P51843); format: functional, cell-based;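 also: HEK293T cells transfected with SF-1 and DAX-1 plus StAR promoter luciferase reporter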
T5 sequence (P51843 whole entry): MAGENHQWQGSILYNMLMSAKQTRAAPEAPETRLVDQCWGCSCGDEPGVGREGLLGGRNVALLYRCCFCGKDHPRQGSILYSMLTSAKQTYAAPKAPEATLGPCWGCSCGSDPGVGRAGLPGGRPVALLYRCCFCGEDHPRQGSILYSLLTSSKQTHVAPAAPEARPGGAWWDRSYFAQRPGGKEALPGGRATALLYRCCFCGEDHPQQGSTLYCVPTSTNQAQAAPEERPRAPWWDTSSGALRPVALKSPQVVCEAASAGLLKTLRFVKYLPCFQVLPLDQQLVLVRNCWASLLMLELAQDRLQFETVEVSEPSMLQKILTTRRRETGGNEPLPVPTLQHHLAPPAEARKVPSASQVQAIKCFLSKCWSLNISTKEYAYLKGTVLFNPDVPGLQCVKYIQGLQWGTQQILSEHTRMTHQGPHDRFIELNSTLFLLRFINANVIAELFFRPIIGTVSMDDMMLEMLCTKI

[9] = cells; format: functional, cell-based
[10] = target: T6, Heat shock factor protein 1 (Mus musculus, UniProt P38532); test: inhibition of MG132-induced HSE-luciferase signal, confirmation, cell-based, NIH3T3, luminescence, dose retest (AID 2382); format: functional;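 also: NIH3T3 fibroblasts with HSF1-driven luciferase reporter stressed by proteasome inhibitor MG132; luminescence from HSF1-driven luciferase expression after 8 hours of MG132 stress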
T6 sequence (P38532 whole entry): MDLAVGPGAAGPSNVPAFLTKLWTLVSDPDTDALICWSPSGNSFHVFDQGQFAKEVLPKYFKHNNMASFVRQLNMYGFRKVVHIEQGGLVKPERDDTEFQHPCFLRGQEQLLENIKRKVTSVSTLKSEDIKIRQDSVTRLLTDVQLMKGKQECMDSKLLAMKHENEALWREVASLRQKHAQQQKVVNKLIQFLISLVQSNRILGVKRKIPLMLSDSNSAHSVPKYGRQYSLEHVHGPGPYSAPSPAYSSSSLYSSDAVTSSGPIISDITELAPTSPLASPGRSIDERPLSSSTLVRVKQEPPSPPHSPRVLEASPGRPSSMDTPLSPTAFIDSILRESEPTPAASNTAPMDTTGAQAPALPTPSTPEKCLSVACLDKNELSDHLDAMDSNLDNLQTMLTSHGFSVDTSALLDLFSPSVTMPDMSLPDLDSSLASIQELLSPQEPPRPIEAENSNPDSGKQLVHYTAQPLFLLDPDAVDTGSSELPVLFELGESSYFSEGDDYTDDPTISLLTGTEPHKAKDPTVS

[11] = growth suppression of PTEN-null colon cells, dose response, cell-based, HCT116 PTEN knockout (AID 1047); format: functional;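 also: HCT116 colon tumor cells with PTEN knocked out; cells exposed to compound for 60 hours before readout; potency for loss of cell viability measured by luminescence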
[12] = target: Prothrombin (Homo sapiens, UniProt P00734); test: Thrombin 1536 HTS Dose Response Confirmation. [Related pubchem assays: 1046 (Thrombin 1536 HTS; hits were confirmed in this assay)]; format: functional
[13] = growth suppression of beta-catenin-knockout colon cells, dose response, cell-based, HCT116, human colon tumor (AID 1045); format: functional;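 also: HCT116 colon tumor cells with beta catenin knocked out; cells exposed to compound for 60 hours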
[14] = tested on: BJ; test: cytotoxicity toward BJ-TERT-LT-ST fibroblasts, dose response, cell-based, RAS-independent, luminescence (AID 1935); format: functional; conditions: Homo sapiens;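 also: BJ fibroblasts immortalized with TERT plus LT and ST oncogenes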
[15] = Luminescence Cell-Based Dose Response HTS to Identify Inhibitors of 5'UTR Stem-Loop Driven Prion Protein mRNA Translation in H4 Neuroglioblastoma Cells. [Related pubchem assays: 1827 (Project Summary), 1813 (Primary HTS)]; format: functional
[16] = inhibitors of SNCA 5'UTR-driven reporter translation, confirmation, H4 neuroglioma cells, luminescence (AID 1988); format: functional, cell-based
[17] = tested on: BJ; test: cells; format: functional, cell-based; conditions: Homo sapiens
[18] = target: Nonstructural protein 1 (Influenza A virus, UniProt Q194T2); format: functional, Influenza A virus (A/California/07/2009(H1N1))
[19] = tested on: BJ; test: cytotoxicity toward BJ-TERT fibroblasts, dose response, cell-based, RAS-independent, luminescence (AID 1933); format: functional; conditions: Homo sapiens
[20] = cytotoxicity toward DRD oncogenic fibroblasts, dose response, cell-based, non-viral oncogenic, luminescence (AID 1934); format: functional; conditions: Homo sapiens
[21] = inhibitors of firefly luciferase expression or activity, dose response, H4 neuroglioma cells, luminescence (AID 1990); format: functional, cell-based
[22] = tested on: BJ; test: cytotoxicity toward Ras-transformed BJeLR fibroblasts, dose response, cell-based, alamar blue fluorescence, cherrypicked samples (AID 2631); format: functional; conditions: Homo sapiens;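 also: confirmatory dose-response assay in RAS-dependent BJ fibroblasts engineered with TERT, LT and ST, with cytotoxicity read by fluorescence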
[23] = microbe, parasite or virus in culture; format: functional; conditions: Mycobacterium tuberculosis
[24] = target: Kallikrein-7 (Homo sapiens, UniProt P49862); test: Fluorescence Intensity-based biochemical primary high throughput dose response assay to identify activators of kallikrein-7 (K7) zymogen.
Kallikrein-7, sequence (P49862 whole entry): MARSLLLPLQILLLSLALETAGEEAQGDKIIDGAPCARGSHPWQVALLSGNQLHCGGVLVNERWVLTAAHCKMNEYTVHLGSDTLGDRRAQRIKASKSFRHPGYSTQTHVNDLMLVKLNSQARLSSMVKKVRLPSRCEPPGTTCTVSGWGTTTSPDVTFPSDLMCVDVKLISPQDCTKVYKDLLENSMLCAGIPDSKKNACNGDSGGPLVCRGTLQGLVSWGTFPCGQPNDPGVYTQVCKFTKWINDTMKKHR

T4 sequence (P49327 whole entry, the tested form may be a part): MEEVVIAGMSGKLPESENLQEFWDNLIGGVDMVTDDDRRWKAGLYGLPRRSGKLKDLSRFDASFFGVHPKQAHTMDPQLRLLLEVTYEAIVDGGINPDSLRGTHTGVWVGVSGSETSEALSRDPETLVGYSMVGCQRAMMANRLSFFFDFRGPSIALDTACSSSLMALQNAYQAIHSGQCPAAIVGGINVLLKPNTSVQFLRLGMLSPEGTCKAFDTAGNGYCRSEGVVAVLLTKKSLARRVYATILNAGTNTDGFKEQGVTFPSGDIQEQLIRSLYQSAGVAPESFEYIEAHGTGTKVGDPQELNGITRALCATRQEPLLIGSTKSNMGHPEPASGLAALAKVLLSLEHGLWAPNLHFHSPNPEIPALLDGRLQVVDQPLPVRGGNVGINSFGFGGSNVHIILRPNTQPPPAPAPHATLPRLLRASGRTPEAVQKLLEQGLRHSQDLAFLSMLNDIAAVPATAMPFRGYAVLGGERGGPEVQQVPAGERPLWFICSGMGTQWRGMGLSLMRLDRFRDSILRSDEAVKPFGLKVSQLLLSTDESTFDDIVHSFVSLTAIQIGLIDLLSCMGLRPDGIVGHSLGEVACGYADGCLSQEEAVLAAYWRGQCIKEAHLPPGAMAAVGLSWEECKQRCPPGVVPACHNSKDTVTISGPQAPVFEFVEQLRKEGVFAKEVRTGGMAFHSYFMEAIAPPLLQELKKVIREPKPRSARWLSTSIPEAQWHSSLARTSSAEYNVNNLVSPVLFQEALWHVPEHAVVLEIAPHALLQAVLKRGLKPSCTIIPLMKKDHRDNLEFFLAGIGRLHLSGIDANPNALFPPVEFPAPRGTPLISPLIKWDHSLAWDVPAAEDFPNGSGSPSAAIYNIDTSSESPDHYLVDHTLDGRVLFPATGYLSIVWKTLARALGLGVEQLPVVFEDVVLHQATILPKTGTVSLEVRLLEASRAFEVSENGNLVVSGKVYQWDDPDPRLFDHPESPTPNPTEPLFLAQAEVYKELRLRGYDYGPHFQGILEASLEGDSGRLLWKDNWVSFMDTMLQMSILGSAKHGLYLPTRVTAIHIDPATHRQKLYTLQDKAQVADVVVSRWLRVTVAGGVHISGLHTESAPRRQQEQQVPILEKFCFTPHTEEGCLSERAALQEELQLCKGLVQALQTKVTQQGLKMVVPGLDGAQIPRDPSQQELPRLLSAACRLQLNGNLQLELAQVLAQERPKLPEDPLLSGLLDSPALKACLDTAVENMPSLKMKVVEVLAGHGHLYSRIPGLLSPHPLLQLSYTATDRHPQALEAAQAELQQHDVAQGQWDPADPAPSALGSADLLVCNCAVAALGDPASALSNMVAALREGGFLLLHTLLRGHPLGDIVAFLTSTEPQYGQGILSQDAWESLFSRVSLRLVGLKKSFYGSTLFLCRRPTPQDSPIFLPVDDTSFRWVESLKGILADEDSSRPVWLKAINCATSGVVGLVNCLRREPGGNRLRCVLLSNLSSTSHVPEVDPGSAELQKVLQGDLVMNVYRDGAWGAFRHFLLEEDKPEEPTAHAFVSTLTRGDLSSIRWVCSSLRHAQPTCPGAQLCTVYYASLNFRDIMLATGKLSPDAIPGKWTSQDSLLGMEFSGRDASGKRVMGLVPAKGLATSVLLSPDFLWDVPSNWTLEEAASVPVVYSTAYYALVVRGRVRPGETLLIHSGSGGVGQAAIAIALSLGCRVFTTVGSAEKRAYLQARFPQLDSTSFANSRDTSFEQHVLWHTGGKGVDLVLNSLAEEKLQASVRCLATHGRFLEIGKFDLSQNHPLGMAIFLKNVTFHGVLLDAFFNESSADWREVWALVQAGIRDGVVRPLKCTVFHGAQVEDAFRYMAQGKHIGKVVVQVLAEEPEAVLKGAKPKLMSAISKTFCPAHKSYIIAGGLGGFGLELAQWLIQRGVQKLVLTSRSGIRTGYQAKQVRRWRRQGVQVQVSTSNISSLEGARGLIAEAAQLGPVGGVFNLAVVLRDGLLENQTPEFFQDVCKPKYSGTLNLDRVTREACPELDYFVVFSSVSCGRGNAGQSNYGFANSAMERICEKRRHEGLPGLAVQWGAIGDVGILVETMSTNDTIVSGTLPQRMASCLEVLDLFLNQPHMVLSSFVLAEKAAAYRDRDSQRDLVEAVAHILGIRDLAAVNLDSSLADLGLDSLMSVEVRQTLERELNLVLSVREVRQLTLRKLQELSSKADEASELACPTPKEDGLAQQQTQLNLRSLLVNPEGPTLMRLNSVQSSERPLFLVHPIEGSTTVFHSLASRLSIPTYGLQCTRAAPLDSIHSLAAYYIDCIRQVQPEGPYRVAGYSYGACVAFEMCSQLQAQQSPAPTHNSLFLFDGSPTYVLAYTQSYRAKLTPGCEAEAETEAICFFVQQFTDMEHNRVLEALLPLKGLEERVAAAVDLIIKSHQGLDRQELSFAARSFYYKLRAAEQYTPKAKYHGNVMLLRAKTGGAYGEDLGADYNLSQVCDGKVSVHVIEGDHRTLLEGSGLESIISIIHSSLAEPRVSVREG
Nonstructural protein 1, sequence (Q194T2 whole entry): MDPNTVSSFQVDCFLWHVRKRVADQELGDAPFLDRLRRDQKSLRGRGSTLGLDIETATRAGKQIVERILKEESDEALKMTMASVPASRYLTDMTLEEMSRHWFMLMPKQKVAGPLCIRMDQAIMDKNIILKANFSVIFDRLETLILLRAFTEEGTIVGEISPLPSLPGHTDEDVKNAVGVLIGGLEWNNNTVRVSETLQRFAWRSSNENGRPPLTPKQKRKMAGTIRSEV

For `C[n+]1ccc(/C=C/c2ccccc2O)c2ccccc21`, the AC50 [1] was 19.1 µM (active), the EC50 [2] was 0.753 µM (active) and the IC50 [3] was 178 µM (active). The EC50 [4] was > 60 µM (not active) and the AC50 [5] was > 20 µM (inactive).
With `O=C(COC(=O)c1cc([N+](=O)[O-])ccc1NCCO)Nc1cccc(S(=O)(=O)N2CCCC2)c1` the IC50 [6] was 4.57 µM (active) and the IC50 [7] was 6.67 µM (active).
In the case of `CCCC(C)C(=O)Nc1cc([N+](=O)[O-])ccc1Cl` (stereo unspecified), the IC50 [6] is reported as 11.8 µM (active) and the IC50 [7] is reported as 12.2 µM (active).
In the case of `Cn1cccc1C(=O)NCC1COc2ccccc2O1` (stereo unspecified), the IC50 [8] is reported as > 67.5 µM (inactive) and the IC50 [9] is reported as > 67.5 µM (inactive).
For `Cc1cc(-n2c(C)c3c(C)nnc(C)c3c2C)ccc1N`, the AC50 [1] was 8.66 µM (active) and the EC50 [10] was > 195 µM (not active).
In the case of `Cc1nn2c(NCCCN(C)C)c3c(nc2c1-c1ccccc1)CCC3`, the EC50 [2] is reported as 0.625 µM (active), the EC50 [11] is reported as 15.9 µM (active) and the IC50 [12] is reported as > 50 µM (not active). The EC50 [4] was > 60 µM (not active) and the EC50 [13] was 15.9 µM (active).
For `COc1ccc(N(C(=O)c2ccco2)S(=O)(=O)c2ccc(F)cc2)cc1`, the IC50 [12] was 17.5 µM (active).
In the case of `C=CCN(C(=O)Nc1ccc2c(c1)nc(C)n2C)c1ccccc1`, the IC50 [12] is reported as > 50 µM (not active).
For `ClC1=C(Cl)C(Cl)=C(Cl)C1=C/C=C/c1ccccc1`, the EC50 [14] was 2.42 µM (inconclusive), the EC50 [15] was 10.9 µM (active) and the EC50 [16] was 3.43 µM (active). The EC50 [17] was 2.98 µM (active), the IC50 [18] was 33.6 µM (active) and the EC50 [19] was 2.55 µM (inconclusive). For the same compound, the EC50 [20] was 2.45 µM (active), the EC50 [21] was 3.75 µM (inconclusive) and the EC50 [22] was 1.25 µM (active). The CC50 [23] was 7.07 µM (active).
With `COc1ccc(-c2ccc3nnc(SCC(=O)N4CCCC4)n3n2)cc1` the EC50 [24] was > 69.5 µM (inactive).
